Assay results taken from patent US20230021957A1, “USE OF PSILOCIN, […] ANALOGS THEREOF IN WEIGHT LOSS, TREATMENT OF OBESITY AND COMPULSIVE EATING DISORDER” (NEONMIND BIOSCIENCES INC., priority 2019, published 2023).

How the values were obtained:
[1] = Weight loss in obese males, gel tabs on weekdays for 2 months; format: in vivo, human; conditions: 2.5 mg gel tab every morning on weekdays
Experimental: 12 males all weighing between 250 and 275 lbs and all having BMI indexes between 30 and 35 kg/m^2 are split into two groups. The first is provided with placebo gel tabs; the second with indistinguishable gel tabs containing 2.5 mg of purified synthetically produced psilocin in a pharmaceutically acceptable carrier. Both groups are instructed to take one gel tab every morning, before breakfast, on weekdays, with weekends off, for 2 months. At the end of the two months, the first (placebo) group is found to have a similar weight as before the treatment, whereas the treatment group loses an average of 12 lbs each.

[2] = Weight gain of rats on a high calorie diet, once daily psilocybin for five days; format: in vivo, Sprague-Dawley rats; conditions: for total weight gain over the 5 day period: control 27.8
Experimental: In order to determine whether psilocybin has anorectic—and therefore weight loss—properties, a preclinical study of the drug was conducted, using a well-validated animal model. Rodent models of food consumption and weight gain have a strong homology with humans, as rodents are omnivores with a very similar metabolic physiology. […] The goal of the present study was to cause accelerated weight gain with a high calorie diet, consisting of a highly palatable food with a large proportion of fat and carbohydrate, compared to standard animal food, which is designed to maintain a healthy weight. We evaluated whether treatment with two different doses of psilocybin could reduce the accelerated weight gain caused by this diet.
Adult, male Sprague-Dawley rats were purchased from the animal supplier, and then housed in pairs in polycarbonate cages, with access to water and standard rat food ad libitum. Rats were given a period of time to acclimate to the animal colony. They were then all given unlimited access to a highly palatable diet that is very high in carbohydrate and fat (consisting predominantly of a hazelnut-flavored chocolate spread combined with peanut butter) that has been used routinely in multiple published studies with rats to study rapid weight gain (Hansen et al., Acta pharmacologica Sinica. 2012; 33(2):194-200). Animals were randomly assigned to one of three treatment groups, which consisted of once daily administration of either a lower dose (5 mg/kg; n=7 animals) of psilocybin, a higher dose (20 mg/kg; n=7 animals) of psilocybin, or no psilocybin (n=12 animals). The psilocybin was supplied by the Katz Group at the University of Alberta, and was legally approved by an exemption from Health Canada.
Rats were administered the drug approximately two hours before the lights went off in the animal colony, which is when feeding typically commences. Animals were free to consume as much of the regular rat food or high calorie diet as they wished. They were weighed each day prior to drug treatment, to determine how much weight had been gained in the previous 24 hours. The study administered the drug over five consecutive days. Data were statistically analyzed by (SPSS Version 24 software package) using a one-way Analysis of Variance (ANOVA) with a LSD-post hoc test to detect between-group differences.

[3] = system: compulsive eating disorder; assay: Self-reported instances of compulsive eating over two months; conditions: once a day with breakfast for two months; compared to first two months without treatment

Row | Structure (SMILES) | fasting glucose levels [1] | insulin resistance [1] | levels of hypertension [1] | lipid count in the blood stream [1] | average weight loss ([1]; males 250-275 lbs, BMI 30-35) [lbs] | reduction in weight gain vs control ([2]; 5 mg/kg once daily, 5 days) [%] | total weight gain over the 5 day period ([2]; 5 mg/kg once daily) [grams] | cumulative weight gain, day-by-day comparison with controls ([2]; 20 mg/kg) | relative weight gain, day-by-day comparison with controls ([2]; 20 mg/kg) | reduction in weight gain vs control ([2]; 20 mg/kg once daily, 5 days) [%] | total weight gain over the 5 day period ([2]; 20 mg/kg once daily) [grams] | decrease of weight gain (summary) ([2]; both doses of psilocybin) | total relative weight gain (relative to baseline weight) ([2]; both psilocybin groups (5 and 20 mg/kg), 5 days, controls 8.4%) [%] | decrease in relative weight gain vs controls ([2]; both psilocybin groups (5 and 20 mg/kg), 5 days, p=0.01) [%] | relative weight gain, day-by-day comparison with controls ([2]; both psilocybin groups (5 and 20 mg/kg), p<0.05) | weight gain per day ([2]; both psilocybin-treated groups (5 and 20 mg/kg once daily), control 5-8) | cumulative weight gain, day-by-day comparison with controls ([2]; both psilocybin-treated groups (5 and 20 mg/kg)) | self-reported instances of compulsive eating [3]
1 | CN(C)CCc1c[nH]c2cccc(O)c12 [psilocin, 4-hydroxy-N,N-dimethyltryptamine] | lower fasting glucose levels | decreased insulin resistance | lower levels of hypertension | lower lipid count in the blood stream | 12 | – | – | – | – | – | – | – | – | – | – | – | – | –
2 | CN(C)CCc1c[nH]c2cccc(OP(=O)(O)O)c12 [psilocybin] | – | – | – | – | – | 31 | 19.4 | significantly reduced weight gain compared to controls by Day 3 | gained statistically less relative weight by day 3 | 28 | 20.1 | approximately one third | 5.7 | 32 | gained less relative weight by day 4 | 1-8 grams per day | significantly decreased weight gain compared to controls | decrease in compulsive eating
